Experiments:
Assay type in all cases: functional
Mus musculus [1] = assay: Average weight change in mice bearing sarcoma 180 ascites cells at dose 5 mg/kg
Mus musculus [2] = assay: Ratio of the survival time of treated to control animals at dose 10 mg/kg
Mus musculus [3] = assay: Average weight change in mice bearing sarcoma 180 ascites cells at dose 10 mg/kg
Mus musculus [4] = assay: Average weight change in mice bearing sarcoma 180 ascites cells at dose 20 mg/kg
Mus musculus [5] = assay: Ratio of the survival time of treated to control animals at dose 20 mg/kg
Mus musculus [6] = assay: Ratio of the survival time of treated to control animals at dose 5 mg/kg
Mus musculus [7] = assay: Average weight change in mice bearing sarcoma 180 ascites cells at dose 2.5 mg/kg
Mus musculus [8] = assay: Ratio of the survival time of treated to control animals at dose 2.5 mg/kg

| SMILES | Average weight change (Mus musculus [1]) | T/C (Mus musculus [2]) | Average weight change (Mus musculus [3]) | Average weight change (Mus musculus [4]) | T/C (Mus musculus [5]) | T/C (Mus musculus [6]) | Average weight change (Mus musculus [7]) | T/C (Mus musculus [8]) |
| --- | --- | --- | --- | --- | --- | --- | --- | --- |
| CC(=O)OCC1=CC(=O)c2ccccc2C1=O | -9.3% | 1.62 | -14.4% | -10.2% | 0.7 | 1.66 | – | – |
| Cc1ccc(S(=O)(=O)OCc2ccc3c(c2)C(=O)C=CC3=O)cc1 | -3.8% | 1.82 | -11.6% | -15.2% | 1.64 | 1.44 | – | – |
| O=C1C=CC(=O)c2cc(CCl)ccc21 | -10.4% | 1.05 | -13.5% | – | 0.22 | 1.38 | – | – |
| CNC(=O)OCC1=CC(=O)c2ccccc2C1=O | -12.6% | 1.51 | -10.5% | -11.4% | 0.51 | 1.39 | – | – |
| COCC1=CC(=O)c2ccccc2C1=O | 17% | 1.38 | 1.6% | -19% | 1.07 | 0.98 | – | – |
| O=C1C=CC(=O)c2cc(CO)ccc21 | – | 0.17 | – | – | – | – | -9.1% | 1.16 |
| CC(=O)OCc1ccc2c(c1)C(=O)C=CC2=O | -2.9% | 0.93 | – | -7.4% | 0.48 | 1.35 | – | – |
| O=C1C=CC(=O)c2cc(CBr)ccc21 | -7.8% | 1.42 | -11.3% | -12.5% | 0.57 | 1.46 | -4.2% | 2.07 |
| CCOCc1ccc2c(c1)C(=O)C=CC2=O | -6.4% | 0.97 | -10.3% | – | 0.42 | 1.32 | – | – |
| Cc1ccc(S(=O)(=O)OCC2=CC(=O)c3ccccc3C2=O)cc1 | 2.8% | 2.16 | -4.4% | -7.4% | 1.62 | 1.77 | – | – |
| CS(=O)(=O)OCC1=CC(=O)c2ccccc2C1=O | -6.3% | 1.57 | -8.3% | -8.8% | 1.41 | 1.92 | – | – |
| CC1=CC(=O)c2ccccc2C1=O [MENADIONE] | 18.7% | 1.03 | 17.3% | -2% | 1.34 | 0.85 | – | – |
| CS(=O)(=O)OCc1ccc2c(c1)C(=O)C=CC2=O | -6.3% | 1.43 | -11.8% | -13.3% | 1.44 | 1.71 | – | – |
| Cc1ccc2c(c1)C(=O)C=CC2=O | -11.5% | 0.38 | -11.1% | – | 0.26 | 1.09 | – | – |
| O=C(NCCCl)OCC1=CC(=O)c2ccccc2C1=O | -4.6% | 1.71 | -11.4% | -13.8% | 1.96 | 2.08 | – | – |
| O=C1C=C(CBr)C(=O)c2ccccc21 | -5.4% | 1.49 | -7.7% | -9.1% | 1.69 | 1.73 | 1.7% | 1.61 |
| O=C1C=C(CCl)C(=O)c2ccccc21 | -2% | 1.47 | -9.8% | -16.4% | 1.3 | 1.4 | – | – |
| O=C1C=C(CO)C(=O)c2ccccc21 | -6.4% | 0.45 | -15.2% | – | 0.22 | 1.16 | – | – |
| CNC(=O)OCc1ccc2c(c1)C(=O)C=CC2=O | -7.6% | 1.61 | -7.8% | -10.8% | 0.81 | 1.71 | – | – |
| O=C(NCCCl)OCc1ccc2c(c1)C(=O)C=CC2=O | -9% | 1.63 | -11.7% | -17.3% | 0.5 | 1.47 | – | – |
